Among the data in patent publication US20230067159A1, “ROR-GAMMA-T INHIBITOR, PREPARATION METHOD THEREOF AND USE THEREOF” (priority 2020, published 2023) are IC50 values, retold here.

The target of the first assay is T1, RORγ (Homo sapiens, UniProt P51449).
T1 construct: The concentration of B-RORγ LBD was 40 nM
T1 sequence (P51449 269-508 limits assumed): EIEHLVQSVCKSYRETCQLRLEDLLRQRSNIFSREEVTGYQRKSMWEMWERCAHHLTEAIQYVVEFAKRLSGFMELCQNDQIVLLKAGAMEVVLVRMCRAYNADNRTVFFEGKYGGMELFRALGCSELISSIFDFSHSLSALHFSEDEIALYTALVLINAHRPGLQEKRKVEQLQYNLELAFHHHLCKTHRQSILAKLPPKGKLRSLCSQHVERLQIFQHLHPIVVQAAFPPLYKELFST
The assay can be described thus: Fluorescence resonance energy transfer (FRET) test, B-RORγ LBD / Biotin-SRC1. The format is biochemical.
Conditions: not given
How it is done: Biological Example 1 Fluorescence Resonance Energy Transfer (FRET) Test
(1) Preparation of RORγ Test Buffer and 10 mM of DTT
100 mL of 1× Basic test buffer (HEPES (pH 7.4), 100 mM NaCl, 0.01% BSA) was prepared, and 154.25 mg of DTT was added. The mixture was well mixed.
(2) Preparation of Compound with Gradient Concentration
a. Standard compound was prepared: Standard compound was diluted with 100% DMSO to 2.5 mM, then diluted 3-fold with 11 serial dilutions to a final concentration of […];
b. Test compound was prepared referring to the standard compound.
(3) Preparation of 1× Protein Solution Mixture
a. Preparation of the desired amount of 2× B-RORγ LBD/SA-APC protein mixture: The concentration of B-RORγ LBD was 40 nM, and the concentration of SA-APC was 20 nM. They were mixed by gently inversion, and incubated at room temperature for 15 minutes. Then 400 nM of biotin was added. The mixture was mixed by gently inversion, and incubated at room temperature for 10 minutes;
b. Preparation of the desired amount of 2× Biotin-SRC1/SA-eu protein mixture: The concentration of Bioin-SRC1 was 40 nM, and the concentration of SA-eu was 20 nM. They were mixed by gently inversion, and incubated at room temperature for 15 minutes. Then 200 nM of biotin was added. The mixture was mixed by gently inversion, and incubated at room temperature for 10 minutes;
c. The protein mixtures prepared in step a and step b were mixed at a ratio of 1:1, and incubated at room temperature for 5 minutes;
d. 25 μL of the mixture from step c was added to the 384-well plate containing the test compound;
e. The mixture was centrifuged at 1000 rpm for one minute;
f. The mixture was incubated for 1 hour at room temperature.
(4) Data Collection and Calculation
After incubation at room temperature for 1 hour, the fluorescence values at 665 nm and 615 nm were measured with an EnVision plate reader, and the inhibition rate was calculated.
Inhibition rate %)=[(X−Min)/(Max−Min)]×100%
X is the fluorescence value ratio of “665/615” of the test compound; Min is the average value of “665/615” of the DMSO blank control; Max is the average value of “665/615” of the 10 μM SRC.
`CCS(=O)(=O)c1ccc([C@H](CO)NC(=O)c2ccc(N3C[C@H](Oc4ccc(C(F)(F)F)cc4)C[C@H]3CN3CCOC[C@@H]3C)cc2)cc1` [Example 35, N—((R)-1-(4-(ethylsulfonyl)phenyl)-2-hydroxyethyl)-4-((2S,4R)-2-(((S)-3-methylmorpholinyl)methyl)-4-(4-(trifluoromethyl)phenoxy)pyrrolidin-1-yl)benzamide]: the IC50 (as a rule, the point on the concentration scale where inhibition reaches its midpoint) turned out to be 135 nM.

`CCS(=O)(=O)c1ccc([C@H](CO)NC(=O)c2ccc(N3C[C@H](Oc4ccc(C(F)(F)F)cc4)C[C@H]3COC(F)F)cc2)cc1` [Example 40] returned an IC50 of 25 nM.

In turn, `CCS(=O)(=O)c1ccc([C@H](CO)NC(=O)c2ccc(N3C[C@H](Oc4ccc(C(F)(F)F)cc4)C[C@H]3COCCC(F)F)cc2)cc1` [Example 44] had an IC50 of 51 nM.

`CCC(F)(F)OC[C@@H]1C[C@H](Oc2ccc(C(F)(F)F)cc2)CN1c1ccc(C(=O)N[C@@H](CO)c2ccc(S(=O)(=O)CC)cc2)cc1` [Example 45] showed an IC50 of 17 nM.

`CCS(=O)(=O)c1ccc([C@H](CO)NC(=O)c2ccc(N3C[C@H](Oc4ccc(C(F)(F)F)cc4)C[C@H]3CCOC(F)F)cc2)cc1` [Example 46]: the IC50 was 13.2 nM.

`CCS(=O)(=O)c1ccc([C@H](CO)NC(=O)c2ccc(N3C[C@@H](Oc4ccc(C(F)(F)F)cc4)C[C@H]3CCOC(F)F)cc2)cc1` [Example 47] gave an IC50 of 4.6 nM.

Consider `CCS(=O)(=O)c1ccc([C@H](CO)NC(=O)c2ccc(N3C[C@H](Oc4ccc(C(F)(F)F)cc4)C[C@H]3COCC3CC3)nc2)cc1` [Example 50], for which the IC50 is 52 nM.

On to `CCS(=O)(=O)c1ccc([C@H](CO)NC(=O)c2ccc(N3C[C@H](Oc4ccc(C(F)(F)F)cc4)C[C@H]3COC(F)F)nc2)cc1` [Example 52], for which the IC50 was 49.9 nM.

As to `CCS(=O)(=O)c1ccc([C@H](CO)NC(=O)c2ccc(N3C[C@@H](Oc4ccc(C(F)(F)F)cc4)C[C@H]3COC(F)F)nc2)cc1` [Example 53], the IC50 is 3 nM.

In the case of `CCC(F)(F)OC[C@@H]1C[C@H](Oc2ccc(C(F)(F)F)cc2)CN1c1ccc(C(=O)N[C@@H](CO)c2ccc(S(=O)(=O)CC)cc2)cn1` [Example 55], the IC50 stood at 9 nM.

The compound `CCS(=O)(=O)c1ccc(CNC(=O)c2cnc(N3C[C@H](Oc4ccc(C(F)(F)F)cc4)C[C@H]3COCCF)nc2)cc1` [Example 58, N-(4-(ethylsulfonyl)benzyl)-2-((2S, 4R)-2-((2-fluoroethoxy)methyl)-4-(4-(trifluoromethyl)phenoxy)pyrrolidin-1-yl)pyrimidine-5-carboxamide] returned a 50% inhibitory concentration (IC50) of 57.3 nM.

As for `CCS(=O)(=O)c1ccc([C@H](CO)NC(=O)c2cnc(N3C[C@H](Oc4ccc(C(F)(F)F)cc4)C[C@H]3COCCF)nc2)cc1` [Example 59, N—((R)-1-(4-(ethylsulfonyl)phenyl)-2-hydroxyethyl)-2-((2S,4R)-2-((2-fluoroethoxy)methyl)-4-(4-(trifluoromethyl)phenoxy)pyrrolidin-1-yl)pyrimidine-5-carboxamide], the IC50 amounted to 28 nM.

As to `CCS(=O)(=O)c1ccc([C@H](CO)NC(=O)c2cnc(N3C[C@H](Oc4ccc(C(F)(F)F)cc4)C[C@H]3COCC3CC3)nc2)cc1` [Example 60], 33.8 nM corresponded to half-maximal inhibition (IC50).

For `CCS(=O)(=O)c1ccc([C@H](CO)NC(=O)c2cnc(N3C[C@H](Oc4ccc(C(F)(F)F)cc4)C[C@H]3CCOC(F)F)nc2)cc1` [Example 63], it took 48 nM to reach half-maximal inhibition (IC50).

Turning to `CCS(=O)(=O)c1ccc([C@H](CO)NC(=O)c2cnc(N3C[C@@H](Oc4ccc(C(F)(F)F)cc4)C[C@H]3COC(F)F)nc2)cc1` [Example 64], 3 nM corresponded to half-maximal inhibition (IC50).

With `CCC(F)(F)OC[C@@H]1C[C@H](Oc2ccc(C(F)(F)F)cc2)CN1c1ncc(C(=O)N[C@@H](CO)c2ccc(S(=O)(=O)CC)cc2)cn1` [Example 67], the IC50 worked out at 8 nM.

For the compound `CCS(=O)(=O)c1ccc([C@H](CO)NC(=O)c2ccc(N3C[C@H](Oc4ccc(C(F)(F)F)cc4)C[C@H]3COC(F)F)cc2)nc1` [Example 68], the IC50 is 75.3 nM.

Turning to `CCS(=O)(=O)c1ccc([C@H](CO)NC(=O)c2ccc(N3C[C@@H](Oc4ccc(C(F)(F)F)cc4)C[C@H]3COC(F)F)cc2)nc1` [Example 69], half-maximal inhibition (IC50) required 4 nM.

In the case of `CCS(=O)(=O)c1ccc([C@H](CO)NC(=O)c2ccc(N3C[C@@H](Oc4ccc(C(F)(F)F)cc4)C[C@H]3COC(F)F)nc2)nc1` [Example 70], it took 7.6 nM to reach half-maximal inhibition (IC50).

In the case of `CCS(=O)(=O)c1ccc([C@H](CO)NC(=O)c2cnc(N3C[C@@H](Oc4ccc(C(F)(F)F)cc4)C[C@H]3COC(F)F)nc2)nc1` [Example 71], half-maximal inhibition (IC50) required 9.3 nM.

In the case of `CCC(F)(F)OC[C@@H]1C[C@H](Oc2ccc(C(F)(F)F)cc2)CN1c1ccc(C(=O)N[C@@H](CO)c2ccc(S(=O)(=O)CC)cn2)cc1` [Example 73], half-maximal inhibition (IC50) required 13 nM.

In the case of `CCC(F)(F)OC[C@@H]1C[C@H](Oc2ccc(C(F)(F)F)cc2)CN1c1ccc(C(=O)N[C@@H](CO)c2ccc(S(=O)(=O)CC)cn2)cn1` [Example 74], the half-inhibitory concentration (IC50) came out at 11 nM.

With `CCC(F)(F)OC[C@@H]1C[C@H](Oc2ccc(C(F)(F)F)cc2)CN1c1ncc(C(=O)N[C@@H](CO)c2ccc(S(=O)(=O)CC)cn2)cn1` [Example 75], the IC50 is 12.1 nM.

In the case of `CCS(=O)(=O)c1ccc([C@H](CO)NC(=O)c2ccc(N3CC[C@H](Oc4ccc(C(F)(F)F)cc4)C3)c(F)c2)cc1` [Example 79, N—((R)-1-(4-(ethylsulfonyl)phenyl)-2-hydroxyethyl)-3-fluoro-4-((S)-3-(4-(trifluoromethyl)phenoxy)pyrrolidin-1-yl)benzamide], half-maximal inhibition (IC50) required 13 nM.

For `CCS(=O)(=O)c1ccc([C@H](CO)NC(=O)c2cnc(N3CC[C@H](Oc4ccc(C(F)(F)F)cc4)C3)c(F)c2)cc1` [Example 81, N—((R)-1-(4-(ethylsulfonyl)phenyl)-2-hydroxyethyl)-5-fluoro-6-((S)-3-(4-(trifluoromethyl)phenoxy)pyrrolidin-1-yl)nicotinamide], half-maximal inhibition (IC50) was put at 78 nM.

On to `CCS(=O)(=O)c1ccc([C@H](CO)NC(=O)c2ccc(N3C[C@@H](Oc4ccc5c(c4)OC(F)(F)O5)C[C@H]3COC(F)F)cc2)cc1` [Example 82, 4-((2S,4S)-4-((2,2-difluorobenzo[d][1,3]dioxol-5-yl)oxy)-2-((difluoromethoxy)methyl)pyrrolidin-1-yl)-N—((R)-1-(4-(ethylsulfonyl)phenyl)-2-hydroxyethyl)benzamide], for which the IC50 was found to be 4 nM.

`CCS(=O)(=O)c1ccc([C@H](CO)NC(=O)c2ccc(N3C[C@@H](Oc4ccc(C(F)(F)F)nc4)C[C@H]3COC(F)F)cc2)cc1` [Example 83]: 6 nM corresponded to half-maximal inhibition (IC50).

As for `CCS(=O)(=O)c1ccc([C@H](CO)NC(=O)c2ccc(N3C[C@@H](Oc4ccc(C(F)(F)F)cc4)C[C@H]3COC(F)F)c(F)c2)cc1` [Example 85], the half-inhibitory concentration (IC50) was 4.5 nM.

With `CCS(=O)(=O)c1ccc([C@H](CO)NC(=O)c2ccc(N3C[C@@H](Oc4ccc(C(F)(F)F)cc4)C[C@H]3COC(F)F)cc2F)cc1` [Example 86], the IC50 turned out to be 6 nM.

For the compound `CCS(=O)(=O)c1ccc([C@H](CO)NC(=O)c2ccc(N3C[C@@H](Oc4ccc(C(F)(F)F)cc4)C[C@H]3COC(F)F)nc2OC)cc1` [Example 88], the 50% inhibitory concentration (IC50) came to 30 nM.

The assay is the same for the next values; noted with them: inhibitory activity of RORγ at the molecular level, FRET 665/615; read-out: IC50.
Consider `CCS(=O)(=O)c1ccc([C@H](CO)NC(=O)c2ccc(N3C[C@H](Oc4ccc(C(F)(F)F)cc4)C[C@H]3COC(C)(F)F)cc2)cc1` [Example 42], for which the IC50 worked out at 17.8 nM.
